Experimental data taken from patent US11453660B2, “Androgen receptor and glucocorticoid receptor modulators” (ONCOSTELLAE, S.L., priority 2017, dated 2022).

Biological target: T1, AR-Receptor (Homo sapiens, UniProt P10275)
T1 sequence (P10275 1-920 Q868H): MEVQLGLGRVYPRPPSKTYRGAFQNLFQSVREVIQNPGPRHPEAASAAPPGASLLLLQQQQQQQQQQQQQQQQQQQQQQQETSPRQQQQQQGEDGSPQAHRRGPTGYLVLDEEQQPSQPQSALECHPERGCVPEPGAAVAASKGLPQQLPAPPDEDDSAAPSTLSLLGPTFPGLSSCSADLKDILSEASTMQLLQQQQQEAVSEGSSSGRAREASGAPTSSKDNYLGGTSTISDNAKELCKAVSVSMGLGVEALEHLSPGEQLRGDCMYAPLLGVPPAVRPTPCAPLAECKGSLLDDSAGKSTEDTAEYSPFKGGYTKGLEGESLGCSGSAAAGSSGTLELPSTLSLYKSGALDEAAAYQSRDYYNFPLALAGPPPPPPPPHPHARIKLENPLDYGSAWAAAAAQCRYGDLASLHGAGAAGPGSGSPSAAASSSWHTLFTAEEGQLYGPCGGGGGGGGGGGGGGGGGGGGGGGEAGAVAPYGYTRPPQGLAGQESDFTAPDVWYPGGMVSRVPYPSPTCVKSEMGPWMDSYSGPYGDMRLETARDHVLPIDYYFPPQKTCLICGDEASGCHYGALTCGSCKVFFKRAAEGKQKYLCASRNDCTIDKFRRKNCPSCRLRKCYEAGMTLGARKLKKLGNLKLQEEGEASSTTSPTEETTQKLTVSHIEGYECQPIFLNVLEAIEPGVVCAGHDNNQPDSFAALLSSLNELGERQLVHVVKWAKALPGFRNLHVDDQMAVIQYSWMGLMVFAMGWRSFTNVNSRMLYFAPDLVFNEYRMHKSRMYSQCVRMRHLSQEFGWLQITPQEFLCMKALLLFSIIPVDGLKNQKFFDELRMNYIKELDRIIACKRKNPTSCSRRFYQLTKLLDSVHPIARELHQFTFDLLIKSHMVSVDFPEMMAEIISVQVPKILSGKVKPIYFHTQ
Assay: Functional Assay AR-Receptor (MDA-MB-453 cells, luciferase)
Type: cell-based
Conditions: antagonist effect in the presence of DHT 1 nM, 24 h, luciferase luminescence, read-out: AR antag KB
Summary of the method: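 MDA-MB-453 cells, 8000/well, were switched to medium with 0.1% FBS and exposed to compounds for 24 h at 37 °C. Antagonist mode used 1 nM DHT. After lysis and a freeze-thaw cycle, luciferase luminescence was read.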

| Kb [nM] | SMILES |
| --- | --- |
| ≥ 1000 | CC(=O)C1=C(C)NC(C)=C(C(=O)OC2CCCCC2)C1c1csc2ncccc12 (centres unmarked) [Example C36, Cyclohexyl 5-acetyl-2,6-dimethyl-4-(thieno[2,3-b]pyridin-3-yl)-1,4-dihydropyridine-3-carboxylate] |
| ≥ 1000 | CC(=O)C1=C(C)NC(C)=C(C(=O)OCc2ccccc2)C1c1csc2ncccc12 (centres unmarked) [Example C39, Benzyl 5-acetyl-2,6-dimethyl-4-(thieno[2,3-b]pyridin-3-yl)-1,4-dihydropyridine-3-carboxylate] |
| 100 to 1000 | CC(=O)C1=C(C)NC(C)=C(C(=O)OCc2ccccc2)C1c1csc2ccc(F)cc12 (centres unmarked) [Example C41, Benzyl 5-acetyl-4-(5-fluorobenzo[b]thiophen-3-yl)-2,6-dimethyl-1,4-dihydropyridine-3-carboxylate] |
| < 100 | CC(=O)C1=C(C)NC(C)=C(C(=O)OCc2ccccc2)C1c1csc2ccc(Cl)cc12 (centres unmarked) [Example C42, Benzyl 5-acetyl-4-(5-chlorobenzo[b]thiophen-3-yl)-2,6-dimethyl-1,4-dihydropyridine-3-carboxylate] |
| < 100 | CC(=O)C1=C(C)NC(C)=C(C(=O)OCC2CCOCC2)C1c1csc2ccc(Cl)cc12 (centres unmarked) [Example C43, (Tetrahydro-2H-pyran-4-yl)methyl 5-acetyl-4-(5-chlorobenzo[b]thiophen-3-yl)-2,6-dimethyl-1,4-dihydropyridine-3-carboxylate] |
| 100 to 1000 | CC(=O)C1=C(C)NC(C)=C(C(=O)OCC2CCOCC2)C1c1csc2ccc(F)cc12 (centres unmarked) [Example C44, (Tetrahydro-2H-pyran-4-yl)methyl 5-acetyl-4-(5-fluorobenzo[b]thiophen-3-yl)-2,6-dimethyl-1,4-dihydropyridine-3-carboxylate] |
| 100 to 1000 | CC(=O)C1=C(C)NC(C)=C(C(=O)OCc2ccncc2)C1c1csc2ccc(F)cc12 (centres unmarked) [Example C46, Pyridin-4-ylmethyl 5-acetyl-4-(5-fluorobenzo[b]thiophen-3-yl)-2,6-dimethyl-1,4-dihydropyridine-3-carboxylate] |
| 100 to 1000 | CC(=O)C1=C(C)NC(C)=C(C(=O)OCc2cccnc2)C1c1csc2ccccc12 (centres unmarked) [Example C48, Pyridin-3-ylmethyl 5-acetyl-4-(benzo[b]thiophen-3-yl)-2,6-dimethyl-1,4-dihydropyridine-3-carboxylate] |
| 100 to 1000 | CC(=O)C1=C(C)NC(C)=C(C(=O)OCc2cccnc2)C1c1csc2c(Br)cccc12 (centres unmarked) [Example C58, Pyridin-3-ylmethyl 5-acetyl-4-(7-bromobenzo[b]thiophen-3-yl)-2,6-dimethyl-1,4-dihydropyridine-3-carboxylate] |
| 100 to 1000 | CC(=O)C1=C(C)NC(C)=C(C(=O)OCc2ccc(Br)cc2)C1c1csc2ncccc12 (centres unmarked) [Example C65, 4-bromobenzyl 5-acetyl-2,6-dimethyl-4-(thieno[2,3-b]pyridin-3-yl)-1,4-dihydropyridine-3-carboxylate] |
| < 100 | CC(=O)C1=C(C)NC(C)=C(C(=O)OCc2cccc(Br)c2)C1c1csc2ncccc12 (centres unmarked) [Example C66, 3-bromobenzyl 5-acetyl-2,6-dimethyl-4-(thieno[2,3-b]pyridin-3-yl)-1,4-dihydropyridine-3-carboxylate] |
| < 100 | CC(=O)C1=C(C)NC(C)=C(C(=O)OCc2ccccc2Br)C1c1csc2ncccc12 (centres unmarked) [Example C67, 2-bromobenzyl 5-acetyl-2,6-dimethyl-4-(thieno[2,3-b]pyridin-3-yl)-1,4-dihydropyridine-3-carboxylate] |
| ≥ 1000 | CC(=O)C1=C(C)NC(C)=C(C(=O)OC(C)(C)c2ccccc2)C1c1csc2ncccc12 (centres unmarked) [Example C71, 2-phenylpropan-2-yl 5-acetyl-2,6-dimethyl-4-(thieno[2,3-b]pyridin-3-yl)-1,4-dihydropyridine-3-carboxylate] |
| ≥ 1000 | CC(=O)C1=C(C)NC(C)=C(C(=O)OCc2cccc(C#N)c2)C1c1csc2ncccc12 (centres unmarked) [Example C72, 3-Cyanobenzyl 5-acetyl-2,6-dimethyl-4-(thieno[2,3-b]pyridin-3-yl)-1,4-dihydropyridine-3-carboxylate] |
| ≥ 1000 | CC(=O)C1=C(C)NC(C)=C(C(=O)OCc2ccc(C#N)cc2)C1c1csc2ncccc12 (centres unmarked) [Example C73, 4-cyanobenzyl 5-acetyl-2,6-dimethyl-4-(thieno[2,3-b]pyridin-3-yl)-1,4-dihydropyridine-3-carboxylate] |
| 100 to 1000 | COC(=O)C1=C(C=O)NC(C2CC2)=C(C(=O)OC)C1c1csc2c(C#N)cccc12 (centres unmarked) [Example C117, Dimethyl 4-(7-cyanobenzo[b]thiophen-3-yl)-2-cyclopropyl-6-formyl-1,4-dihydropyridine-3,5-dicarboxylate] |
| 100 to 1000 | COC(=O)C1=C(CO)NC(C2CC2)=C(C(=O)OC)C1c1csc2c(C#N)cccc12 (centres unmarked) [Example C118, Dimethyl 4-(7-cyanobenzo[b]thiophen-3-yl)-2-cyclopropyl-6-(hydroxymethyl)-1,4-dihydropyridine-3,5-dicarboxylate] |
| 100 to 1000 | COC(=O)C1=C(C)NC(C=O)=C(C(=O)OC)C1c1csc2c(C#N)cccc12 (centres unmarked) [Example C119, Dimethyl 4-(7-cyanobenzo[b]thiophen-3-yl)-2-formyl-6-methyl-1,4-dihydropyridine-3,5-dicarboxylate] |
| 100 to 1000 | CC1=C(C#N)C(c2csc3c(C#N)cccc23)C(C(=O)OCC2CC2)=C(N)N1 (centres unmarked) [Example D24, cyclopropylmethyl 2-amino-5-cyano-4-(7-cyanobenzo[b]thiophen-3-yl)-6-methyl-1,4-dihydropyridine-3-carboxylate] |
| 100 to 1000 | COC(=O)C1=C(C)NC(N)=C(C(=O)OC2CCCC2)C1c1csc2c(C#N)cccc12 (centres unmarked) [Example D27, 3-Cyclopentyl 5-methyl 2-amino-4-(7-cyanobenzo[b]thiophen-3-yl)-6-methyl-1,4-dihydropyridine-3,5-dicarboxylate] |
| 100 to 1000 | CC(=O)C1=C(C)NC(N)=C(C(=O)OCC2CCCCC2)C1c1csc2c(C#N)cccc12 (centres unmarked) [Example D30, Cyclohexylmethyl 5-acetyl-2-amino-4-(7-cyanobenzo[b]thiophen-3-yl)-6-methyl-1,4-dihydropyridine-3-carboxylate] |
| 100 to 1000 | CC1=C(C(=O)C2CC2)C(c2csc3c(C#N)cccc23)C(C(=O)OCC2CC2)=C(N)N1 (centres unmarked) [Example D31, Cyclopropylmethyl 2-amino-4-(7-cyanobenzo[b]thiophen-3-yl)-5-(cyclopropanecarbonyl)-6-methyl-1,4-dihydropyridine-3-carboxylate] |
| 100 to 1000 | CC(=O)C1=C(C)NC(N)=C(C(=O)OCc2cccc(F)c2)C1c1csc2c(C#N)cccc12 (centres unmarked) [Example D32, 3-Fluorobenzyl 5-acetyl-2-amino-4-(7-cyanobenzo[b]thiophen-3-yl)-6-methyl-1,4-dihydropyridine-3-carboxylate] |
| 100 to 1000 | CC1=C(C(=O)OC2CC2)C(c2csc3c(C#N)cccc23)C(C(=O)OCC2CC2)=C(N)N1 (centres unmarked) [Example D37, 5-Cyclopropyl 3-(cyclopropylmethyl) 2-amino-4-(7-cyanobenzo[b]thiophen-3-yl)-6-methyl-1,4-dihydropyridine-3,5-dicarboxylate] |
| 100 to 1000 | COC(=O)C1=C(C)NC(N)=C(C(=O)OCC2CC2)C1c1csc2c(C#N)cc(F)cc12 (centres unmarked) [Example D39, 3-(Cyclopropylmethyl) 5-methyl 2-amino-4-(7-cyano-5-fluorobenzo[b]thiophen-3-yl)-6-methyl-1,4-dihydropyridine-3,5-dicarboxylate] |
| < 100 | COC(=O)C1=C(C)NC(N)=C(C(=O)OC(C)C)C1c1csc2c(C#N)cccc12 (centres unmarked) [Example D41, 3-Isopropyl 5-methyl 2-amino-4-(7-cyanobenzo[b]thiophen-3-yl)-6-methyl-1,4-dihydropyridine-3,5-dicarboxylate] |
| ≥ 1000 | COC(=O)C1=C(C)NC(N)=C(C(=O)OCC(C)(C)C)C1c1csc2c(C#N)cccc12 (centres unmarked) [Example D43, 5-Methyl 3-neopentyl 2-amino-4-(7-cyanobenzo[b]thiophen-3-yl)-6-methyl-1,4-dihydropyridine-3,5-dicarboxylate] |
| ≥ 1000 | CC1=C(C(=O)OCC2CC2)C(c2csc3c(C#N)cccc23)C(C(=O)OCC2CC2)=C(N)N1 (centres unmarked) [Example D46, Bis(cyclopropylmethyl) 2-amino-4-(7-cyanobenzo[b]thiophen-3-yl)-6-methyl-1,4-dihydropyridine-3,5-dicarboxylate] |
| ≥ 1000 | C#CCOC(=O)C1=C(C)NC(N)=C(C(=O)OCC2CC2)C1c1csc2c(C#N)cccc12 (centres unmarked) [Example D47, 3-(Cyclopropylmethyl) 5-(prop-2-yn-1-yl) 2-amino-4-(7-cyanobenzo[b]thiophen-3-yl)-6-methyl-1,4-dihydropyridine-3,5-dicarboxylate] |
